These compounds were tested against T1, USP28 (His-tagged USP28-FL-mammalian) (Homo sapiens, UniProt Q96RU2) (assay: Ubiquitin-Rhodamine 110 Assay for USP28 Activity, Example A-1(a)). Conditions: Ubiquitin-Rhodamine 110 assay, Example A-1(a); read-out: USP28 A-1(a) IC50 range.
T1 construct: Expression of USP28 (1-1077)-TEV-6*His (pTT5 vector); made in house; host or cells: Expi293f cells (pTT5 vector)
T1 sequence (Q96RU2 1-1077): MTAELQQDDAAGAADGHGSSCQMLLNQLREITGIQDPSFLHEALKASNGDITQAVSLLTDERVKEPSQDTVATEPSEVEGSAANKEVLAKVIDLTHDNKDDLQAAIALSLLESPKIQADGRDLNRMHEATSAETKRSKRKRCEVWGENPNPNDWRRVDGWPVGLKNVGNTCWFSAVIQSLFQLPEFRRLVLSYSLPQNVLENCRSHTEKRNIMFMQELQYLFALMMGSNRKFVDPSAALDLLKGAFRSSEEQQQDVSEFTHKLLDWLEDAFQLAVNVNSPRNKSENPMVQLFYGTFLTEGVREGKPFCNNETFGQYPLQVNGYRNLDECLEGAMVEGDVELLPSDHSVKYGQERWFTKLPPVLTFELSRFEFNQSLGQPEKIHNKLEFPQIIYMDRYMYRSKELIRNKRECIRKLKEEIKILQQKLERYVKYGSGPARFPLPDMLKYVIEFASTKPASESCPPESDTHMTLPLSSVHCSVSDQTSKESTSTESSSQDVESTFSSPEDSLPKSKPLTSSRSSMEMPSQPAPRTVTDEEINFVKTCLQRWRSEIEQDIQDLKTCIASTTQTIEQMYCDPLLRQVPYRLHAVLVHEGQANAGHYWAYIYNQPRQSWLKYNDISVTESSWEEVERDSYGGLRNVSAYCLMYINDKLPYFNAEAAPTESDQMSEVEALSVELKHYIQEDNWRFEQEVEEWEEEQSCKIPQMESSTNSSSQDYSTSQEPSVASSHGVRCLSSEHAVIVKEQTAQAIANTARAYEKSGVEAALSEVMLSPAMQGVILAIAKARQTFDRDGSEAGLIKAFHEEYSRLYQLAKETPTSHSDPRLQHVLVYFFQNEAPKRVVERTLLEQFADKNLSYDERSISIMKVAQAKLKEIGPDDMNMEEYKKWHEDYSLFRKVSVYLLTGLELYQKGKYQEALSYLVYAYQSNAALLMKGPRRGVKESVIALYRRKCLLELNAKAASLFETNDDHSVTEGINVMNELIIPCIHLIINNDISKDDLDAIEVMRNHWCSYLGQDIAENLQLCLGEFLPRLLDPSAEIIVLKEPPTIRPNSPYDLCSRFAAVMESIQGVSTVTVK
Format: biochemical
Procedure, shortened: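 IC50 from 4-parameter logistic fit of percent inhibition versus no-enzyme and DMSO controls; compounds 25 μM to 1.3 nM, 3-fold. Ub-Rh110 cleavage (25 nM, below Km) by […] mammalian-expressed USP28-FL-His ran 45 min at room temperature, stopped with 10 mM citric acid, read ex 485/em 535.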

SMILES | IC50 [nM]
Cc1ccc2c(N)c(C(=O)N[C@@H]3Cc4ccc(N5CCNCC5)nc4[C@@H](C)C3)sc2n1 (single isomer, unassigned) [Example 205] | 200 to 2000
Cc1cc(C)c2c(N)c(C(=O)N[C@H]3COc4cc(N5CC[C@H]6CNC[C@H]65)cc(F)c4C3)sc2n1 (single isomer, unassigned) [Example 222] | 1 to 50
Cc1cc(C)c2c(N)c(C(=O)N[C@H]3COc4cc(N5CC[C@@H]6CNC[C@@H]65)cc(F)c4C3)sc2n1 (single isomer, unassigned) [Example 223] | 1 to 50
CO[C@H]1CN(c2cc3c(cc2C#N)C[C@@H](NC(=O)c2sc4nc(C)ccc4c2N)CO3)C[C@@H]1N [Example 177, 3-amino-N-[(3R)-7-[(3S,4S)-3-amino-4-methoxypyrrolidin-1-yl]-6-cyano-3-4-dihydro-2H-1-benzopyran-3-yl]-6-methylthieno[2,3-b]pyridine-2-carboxamide] | 1 to 50
CO[C@H]1CN(c2ccc3c(c2C#N)CC[C@H](NC(=O)c2sc4nc(C)ccc4c2N)C3)C[C@@H]1N [Example 178, 3-amino-N-[(2S)-6-[(3S,4S)-3-amino-4-methoxypyrrolidin-1-yl]-5-cyano-1,2,3,4-tetrahydronaphthalen-2-yl]-6-methylthieno[2,3-b]pyridine-2-carboxamide] | 1 to 50
CO[C@H]1CN(c2ccc3c(n2)OC[C@H](NC(=O)c2sc4nc(C)cnc4c2N)C3)C[C@@H]1N [Example 181, 7-amino-N-[(3R)-7-[(3S,4S)-3-amino-4-methoxypyrrolidin-1-yl]-2H,3H,4H-pyrano[2,3-b]pyridin-3-yl]-3-methylthieno[2,3-b]pyrazine-6-carboxamide] | 200 to 2000
CCO[C@H]1CN(c2ccc3c(n2)OC[C@H](NC(=O)c2sc4nc(C)cnc4c2N)C3)C[C@@H]1N [Example 182, 7-amino-N-[(3R)-7-[(3S,4S)-3-amino-4-ethoxypyrrolidin-1-yl]-2H,3H,4H-pyrano[2,3-b]pyridin-3-yl]-3-methylthieno[2,3-b]pyrazine-6-carboxamide] | 200 to 2000
CO[C@H]1CN(c2nc3c(cc2F)C[C@@H](NC(=O)c2sc4nc(C)ccc4c2N)CC3)C[C@@H]1N [Example 183, 3-amino-N-[(6S)-2-[(3S,4S)-3-amino-4-methoxypyrrolidin-1-yl]-3-fluoro-5,6,7,8-tetrahydroquinolin-6-yl]-6-methylthieno[2,3-b]pyridine-2-carboxamide] | 50 to 200
Cc1ccc2c(N)c(C(=O)N[C@H]3COc4cc(N5CCO[C@H]6CNC[C@H]65)ccc4C3)sc2n1 [Example 184, N-[(3R)-7-[(4aR, 7aS)-octahydropyrrolo[3,4-b]morpholin-4-yl]-3,4-dihydro-2H-1-benzopyran-3-yl]-3-amino-6-methylthieno[2,3-b]pyridine-2-carboxamide] | 1 to 50
Cc1ccc2c(N)c(C(=O)N[C@H]3COc4cc(N5CCO[C@@H]6CNC[C@@H]65)ccc4C3)sc2n1 [Example 185, N-[(3R)-7-[(4aS,7aR)-octahydropyrrolo[3,4-b]morpholin-4-yl]-3,4-dihydro-2H-1-benzopyran-3-yl]-3-amino-6-methylthieno[2,3-b]pyridine-2-carboxamide] | 1 to 50
CO[C@H]1CN(c2ccc3c(c2)CC[C@H](NC(=O)c2cnc4c(c2)C2CC2CN4)C3)C[C@@H]1N (stereo partly drawn) [Example 188, N-[(2S)-6-[(3S,4S)-3-amino-4-methoxypyrrolidin-1-yl]-1,2,3,4-tetrahydronaphthalen-2-yl]-5H,6H,6aH,7H,7aH-cyclopropa[c]1,8-naphthyridine-2-carboxamide] | 200 to 2000
CO[C@H]1CN(c2ccc3c(c2)CC[C@H](NC(=O)c2cnc4c(c2)[C@@H]2C[C@@H]2CN4)C3)C[C@@H]1N [Example 189, (6aS,7aR)-N-[(2S)-6-[(3S,4S)-3-amino-4-methoxypyrrolidin-1-yl]-1,2,3,4-tetrahydronaphthalen-2-yl]-5H,6H,6aH,7H,7aH-cyclopropa[c]1,8-naphthyridine-2-carboxamide] | 200 to 2000
CO[C@H]1CN(c2ccc3c(c2)CC[C@H](NC(=O)c2cnc4c(c2)[C@H]2C[C@H]2CN4)C3)C[C@@H]1N [Example 190, (6aR,7aS)-N-[(2S)-6-[(3S,4S)-3-amino-4-methoxypyrrolidin-1-yl]-1,2,3,4-tetrahydronaphthalen-2-yl]-5H,6H,6aH,7H,7aH-cyclopropa[c]1,8-naphthyridine-2-carboxamide] | > 2000
O=C(N[C@H]1CCc2cc(N3CC4CCC(C3)N4)cc(F)c2C1)c1cnc2c(c1)[C@@H]1C[C@@H]1CN2 [Example 191, (6aS,7aR)-N-[(2S)-6-{3,8-diazabicyclo[3.2.1]octan-3-yl}-8-fluoro-1,2,3,4-tetrahydronaphthalen-2-yl]-5H,6H,6aH,7H,7aH-cyclopropa[c]1,8-naphthyridine-2-carboxamide] | > 2000
O=C(N[C@H]1CCc2cc(N3CC4CCC(C3)N4)cc(F)c2C1)c1cnc2c(c1)[C@H]1C[C@H]1CN2 [Example 192, (6aR,7aS)-N-[(2S)-6-{3,8-diazabicyclo[3.2.1]octan-3-yl}-8-fluoro-1,2,3,4-tetrahydronaphthalen-2-yl]-5H,6H,6aH,7H,7aH-cyclopropa[c]1,8-naphthyridine-2-carboxamide] | 50 to 200
O=C(N[C@@H]1CCc2cc(N3CC4CCC(C3)N4)cc(F)c2C1)c1cnc2c(c1)[C@@H]1C[C@@H]1CN2 [Example 193, (6aS,7aR)-N-[(2R)-6-{3,8-diazabicyclo[3.2.1]octan-3-yl}-8-fluoro-1,2,3,4-tetrahydronaphthalen-2-yl]-5H,6H,6aH,7H,7aH-cyclopropa[c]1,8-naphthyridine-2-carboxamide] | 200 to 2000
O=C(N[C@@H]1CCc2cc(N3CC4CCC(C3)N4)cc(F)c2C1)c1cnc2c(c1)[C@H]1C[C@H]1CN2 [Example 194, (6aR,7aS)-N-[(2R)-6-{3,8-diazabicyclo[3.2.1]octan-3-yl}-8-fluoro-1,2,3,4-tetrahydronaphthalen-2-yl]-5H,6H,6aH,7H,7aH-cyclopropa[c]1,8-naphthyridine-2-carboxamide] | 200 to 2000
N#Cc1c(N2CC3CCC(C2)N3)cc(F)c2c1CC[C@H](NC(=O)c1cnc3c(c1)[C@@H]1C[C@@H]1CN3)C2 [Example 195, (6aS,7aR)-N-[(2S)-5-cyano-6-{3,8-diazabicyclo[3.2.1]octan-3-yl}-8-fluoro-1,2,3,4-tetrahydronaphthalen-2-yl]-5H,6H,6aH,7H,7aH-cyclopropa[c]1,8-naphthyridine-2-carboxamide] | 1 to 50
N#Cc1c(N2CC3CCC(C2)N3)cc(F)c2c1CC[C@H](NC(=O)c1cnc3c(c1)[C@H]1C[C@H]1CN3)C2 [Example 196, (6aR,7aS)-N-[(2S)-5-cyano-6-{3,8-diazabicyclo[3.2.1]octan-3-yl}-8-fluoro-1,2,3,4-tetrahydronaphthalen-2-yl]-5H,6H,6aH,7H,7aH-cyclopropa[c]1,8-naphthyridine-2-carboxamide] | > 2000
N#Cc1c(N2CC3CCC(C2)N3)cc(F)c2c1CC[C@@H](NC(=O)c1cnc3c(c1)[C@@H]1C[C@@H]1CN3)C2 [Example 197, (6aS,7aR)-N-[(2R)-5-cyano-6-{3,8-diazabicyclo[3.2.1]octan-3-yl}-8-fluoro-1,2,3,4-tetrahydronaphthalen-2-yl]-5H,6H,6aH,7H,7aH-cyclopropa[c]1,8-naphthyridine-2-carboxamide] | > 2000
N#Cc1c(N2CC3CCC(C2)N3)cc(F)c2c1CC[C@@H](NC(=O)c1cnc3c(c1)[C@H]1C[C@H]1CN3)C2 [Example 198, (6aR,7aS)-N-[(2R)-5-cyano-6-{3,8-diazabicyclo[3.2.1]octan-3-yl}-8-fluoro-1,2,3,4-tetrahydronaphthalen-2-yl]-5H,6H,6aH,7H,7aH-cyclopropa[c]1,8-naphthyridine-2-carboxamide] | 200 to 2000
CO[C@H]1CN(c2cc3c(c(F)c2C#N)C[C@@H](NC(=O)c2sc4nc(C)cnc4c2N)CO3)C[C@@H]1N [Example 199, 7-amino-N-[(3R)-7-[(3S,4S)-3-amino-4-methoxypyrrolidin-1-yl]-6-cyano-5-fluoro-3,4-dihydro-2H-1-benzopyran-3-yl]-3-methylthieno[2,3-b]pyrazine-6-carboxamide] | 1 to 50
CO[C@H]1CN(c2cc3c(c(F)c2C#N)C[C@@H](NC(=O)c2sc4nc(C)ccc4c2N)CO3)C[C@@H]1N [Example 200] | 1 to 50

— patent US11524966B1 (Valo Early Discovery, Inc., priority 2017, dated 2022)
